Data on 24 molecules can be found in patent US11053221B2, “Substituted pyrimidines for inhibiting embryonic leucine zipper kinase activity” (Arrien Pharmaceuticals LLC, priority 2018, dated 2021).

Where a name gives a salt, the structure may show the parent alone.

One assay concerns the target T1, MELK (Homo sapiens, UniProt Q14680).
T1 construct: purchased Reaction Biology Corporation
Briefly: HotSpot kinase assay, MELK. The conditions noted are these: HotSpot radiometric 33P ATP assay, 25° C., 120 min. Type of assay: biochemical. The method, then: (§1) In vitro profiling of the MELK, MELK (T460M) kinase panel was performed at Reaction Biology Corporation using the “HotSpot” assay platform. In vitro profiling of the FLT3, FLT3 mutant forms; FLT3 (D835Y), FLT3 (F594R595insR), FLT3 (F594R595insREY), FLT3 (ITD), FLT3 (ITD)-NPOS, FLT3 (ITD)-W51 and FLT3 (R595_E596insEY) kinase panel is performed in the same manner.
(§2) Briefly, specific kinase/substrate pairs along with required cofactors were prepared in reaction buffer; 20 mM Hepes (pH 7.5), 10 mM MgCl2, 1 mM EGTA, 0.02% Brij35, 0.02 mg/mL BSA, 0.1 mM Na3VO4, 2 mM DTT, 1% DMSO. Compounds were delivered into the reaction, followed ˜20 min later by addition of a mixture of ATP (Sigma) and ^33P ATP (PerkinElmer) to a final concentration of […]. Reactions were carried out at 25° C. for 120 min, followed by spotting of the reactions onto P81 ion exchange filter paper (Whatman). Unbound phosphate was removed by extensive washing of filters in 0.75% phosphoric acid. […] IC50 values and curve fits were obtained using Prism (GraphPad Software).

The target of the next assay is T2, FLT3 (Homo sapiens, UniProt P36888).
T2 construct: purchased Reaction Biology Corporation
T2 sequence (P36888 27-993): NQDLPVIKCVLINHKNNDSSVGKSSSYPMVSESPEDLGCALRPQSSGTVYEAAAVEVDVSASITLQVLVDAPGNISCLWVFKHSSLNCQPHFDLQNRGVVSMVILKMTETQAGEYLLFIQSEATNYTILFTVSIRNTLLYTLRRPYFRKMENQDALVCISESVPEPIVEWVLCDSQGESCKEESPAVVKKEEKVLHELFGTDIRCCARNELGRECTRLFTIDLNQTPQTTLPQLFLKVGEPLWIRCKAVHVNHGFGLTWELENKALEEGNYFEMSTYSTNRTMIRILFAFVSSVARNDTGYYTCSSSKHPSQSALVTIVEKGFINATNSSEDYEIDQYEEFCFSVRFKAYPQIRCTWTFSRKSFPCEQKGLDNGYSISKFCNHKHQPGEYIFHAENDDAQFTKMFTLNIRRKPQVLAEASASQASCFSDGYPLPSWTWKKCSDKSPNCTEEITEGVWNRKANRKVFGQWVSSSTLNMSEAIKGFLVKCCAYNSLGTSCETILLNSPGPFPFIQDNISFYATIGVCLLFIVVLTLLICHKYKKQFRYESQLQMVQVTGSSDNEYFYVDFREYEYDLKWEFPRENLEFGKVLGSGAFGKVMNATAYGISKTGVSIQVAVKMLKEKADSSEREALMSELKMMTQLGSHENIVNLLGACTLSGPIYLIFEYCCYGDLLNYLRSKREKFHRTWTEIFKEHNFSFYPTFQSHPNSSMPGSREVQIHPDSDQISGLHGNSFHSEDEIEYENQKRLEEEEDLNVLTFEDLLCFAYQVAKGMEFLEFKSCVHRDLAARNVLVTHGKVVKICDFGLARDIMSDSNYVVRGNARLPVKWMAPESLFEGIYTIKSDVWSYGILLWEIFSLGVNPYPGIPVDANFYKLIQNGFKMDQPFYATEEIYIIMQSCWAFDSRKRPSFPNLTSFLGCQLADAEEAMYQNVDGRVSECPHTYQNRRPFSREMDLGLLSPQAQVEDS
The assay can be described thus: HotSpot kinase assay, FLT3. Type of assay: biochemical. The conditions noted are these: HotSpot radiometric 33P ATP assay, 25° C., 120 min. The method, then:
as §1, §2

The term IC50 denotes the concentration at which inhibition is half-maximal. A lower IC50 goes with inhibition by little substance.

T1 sequence (Q14680 whole entry): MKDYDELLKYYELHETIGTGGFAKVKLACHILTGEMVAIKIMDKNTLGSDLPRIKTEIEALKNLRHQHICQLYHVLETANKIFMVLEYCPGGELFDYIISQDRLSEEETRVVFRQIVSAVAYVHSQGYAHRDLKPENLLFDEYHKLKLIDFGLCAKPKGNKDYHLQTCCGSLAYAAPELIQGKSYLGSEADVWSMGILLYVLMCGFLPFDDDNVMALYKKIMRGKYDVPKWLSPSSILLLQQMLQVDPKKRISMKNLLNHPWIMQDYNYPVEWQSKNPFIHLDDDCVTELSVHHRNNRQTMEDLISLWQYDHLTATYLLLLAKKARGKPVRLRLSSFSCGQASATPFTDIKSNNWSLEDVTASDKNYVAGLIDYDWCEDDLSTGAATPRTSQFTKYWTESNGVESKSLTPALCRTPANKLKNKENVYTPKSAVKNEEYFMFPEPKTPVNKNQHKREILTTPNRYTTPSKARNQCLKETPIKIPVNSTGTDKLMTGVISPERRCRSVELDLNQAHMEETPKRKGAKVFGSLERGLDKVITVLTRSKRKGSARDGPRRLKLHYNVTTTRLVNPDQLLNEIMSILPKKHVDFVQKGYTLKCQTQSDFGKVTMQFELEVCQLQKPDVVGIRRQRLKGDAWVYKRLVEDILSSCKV

As for `N[C@H]1CC[C@@H](COc2cncnc2-c2cnn(-c3c(F)cccc3F)c2)CC1` [Compound I-1, (1s,4s)-4-(((4-(1-(2,6-difluorophenyl)-1H-pyrazol-4-yl)pyrimidin-5-yl)oxy)methyl)cyclo-hexan-1-amine], the 50% inhibitory concentration (IC50) against MELK and against FLT3 was < 200 nM each time.

`N[C@H]1CC[C@@H](COc2cncnc2-c2cnn(-c3ccccc3C(F)(F)F)c2)CC1` [Compound I-2, (1s,4s)-4-(((4-(1-(2-(trifluoromethyl)phen-yl)-1H-pyrazol-4-yl)pyrimidin-5-yl)oxy)methyl)cyclo-hexan-1-amine]: the half-inhibitory concentration (IC50) against MELK is > 1000 nM; against FLT3, 200 to 1000 nM.

Consider `N[C@H]1CC[C@@H](COc2cncnc2-c2cnn(-c3ccccc3OC(F)(F)F)c2)CC1` [Compound I-3, (1s,4s)-4-(((4-(1-(2-(trifluoromethoxy)phen-yl)-1H-pyrazol-4-yl)pyrimidin-5-yl)oxy)methyl)cyclo-hexan-1-amine], for which the IC50 at MELK and against FLT3 was 200 to 1000 nM each time.

In the case of `N#Cc1ccccc1-n1cc(-c2ncncc2OC[C@H]2CC[C@@H](N)CC2)cn1` [Compound I-4, 2-(4-(5-(((1s,4s)-4-aminocyclohexyl)meth-oxy)pyrimidin-4-yl)-1H-pyrazol-1-yl)benzonitrile], the values for the IC50 at MELK and against FLT3 were 200 to 1000 nM and < 200 nM, respectively.

As to `COc1ccccc1-n1cc(-c2ncncc2OC[C@H]2CC[C@@H](N)CC2)cn1` [Compound I-5, (1s,4s)-4-(((4-(1-(2-methoxyphenyl)-1H-pyrazol-4-yl)pyrimidin-5-yl)oxy)methyl)cyclo-hexan-1-amine], the concentration for half-maximal inhibition (IC50) at MELK and on FLT3 was < 200 nM each time.

Take `N[C@@H]1CC[C@H](COc2cncnc2-c2cnn(-c3ccccc3F)c2)C1` [Compound I-6, (1R,3S)-3-(((4-(1-(2-fluorophenyl)-1H-pyrazol-4-yl)pyrimidin-5-yl)oxy)methyl)cyclo-pentan-1-amine]: the IC50 on MELK and against FLT3 was 200 to 1000 nM throughout.

Turning to `CN(C)[C@@H]1CC[C@H](COc2cncnc2-c2cnn(-c3ccccc3F)c2)C1` [Compound I-7, (1R,3S)-3-(((4-(1-(2-fluorophenyl)-1H-pyrazol-4-yl)pyrimidin-5-yl)oxy)methyl)-N,N-dimethylcyclopentan-1-amine], the concentration for half-maximal inhibition (IC50) at MELK and against FLT3 was 200 to 1000 nM in each case.

Consider `CN(C)C[C@@H]1CC[C@H](COc2cncnc2-c2cnn(-c3ccccc3F)c2)C1` [Compound I-8, 1-((1R,3S)-3-(((4-(1-(2-fluorophenyl)-1H-pyrazol-4-yl)pyrimidin-5-yl)oxy)methyl)cyclo-pentyl)-N,N-dimethylmethanamine], for which the IC50 on MELK and on FLT3 was < 200 nM each time.

With `CN(C)[C@H]1CC[C@@H](COc2cncnc2-c2cnn(-c3ccccc3F)c2)CC1` [Compound I-9, (1s,4s)-4-(((4-(1-(2-fluorophenyl)-1H-pyrazol-4-yl)pyrimidin-5-yl)oxy)methyl)-N,N-dimethylcyclohexan-1-amine], the concentration for half-maximal inhibition (IC50) at MELK is 200 to 1000 nM; against FLT3, < 200 nM.

With `NC1CCN(c2cncnc2-c2cnn(-c3ccccc3F)c2)CC1` [Compound I-10, 1-(4-(1-(2-fluorophenyl)-1H-pyrazol-4-yl)pyrimidin-5-yl)piperidin-4-amine], the results for the IC50 on MELK and on FLT3 were > 1000 nM and 200 to 1000 nM, respectively.

As to `N[C@H]1CC[C@@H](CNc2cncnc2-c2cnn(-c3ccccc3F)c2)CC1` [Compound I-11, N-(((1s,4s)-4-aminocyclohexyl)meth-yl)-4-(1-(2-fluorophenyl)-1H-pyrazol-4-yl)pyrimidin-5-amine], the values for the IC50 at MELK and at FLT3 were > 1000 nM and 200 to 1000 nM, respectively.

In the case of `N[C@H]1CC[C@@H](CNc2cncnc2-c2cnn(-c3c(F)cccc3F)c2)CC1` [Compound I-12, N-(((1s, 4s)-4-aminocyclohexyl)methyl)-4-(1-(2,6-difluorophenyl)-1H-pyrazol-4-yl)-pyrimidin-5-amine trifluoroacetate], the IC50 on MELK is > 1000 nM; against FLT3, 200 to 1000 nM.

Consider `N[C@@H]1CC[C@@H]1COc1cncnc1-c1cnn(-c2ccccc2F)c1` [Compound I-13, (1R,2S)-2-(((4-(1-(2-fluorophenyl)-1H-pyrazol-4-yl)pyrimidin-5-yl)oxy)methyl)cyclo-butan-1-amine], for which the IC50 against MELK and against FLT3 was > 1000 nM each time.

For `Cc1cccc(F)c1-n1cc(-c2ncncc2OC[C@H]2CC[C@@H](N)CC2)cn1` [Compound I-14, (1s,4s)-4-(((4-(1-(2-fluoro-6-methylphenyl)-1H-pyrazol-4-yl)pyrimidin-5-yl)oxy)methyl)cyclo-hexan-1-amine], the IC50 was > 1000 nM on MELK and 200 to 1000 nM at FLT3.

Take `CC(C)N[C@H]1CC[C@@H](COc2cncnc2-c2cnn(-c3ccccc3F)c2)CC1` [Compound I-15, (1s,4s)-4-(((4-(1-(2-fluorophenyl)-1H-pyrazol-4-yl)pyrimidin-5-yl)oxy)methyl)-N-isopropylcyclohexan-1-amine]: the IC50 against MELK was 200 to 1000 nM; against FLT3 it was < 200 nM.

In the case of `CC(C)N1CCC(COc2cncnc2-c2cnn(-c3ccccc3F)c2)CC1` [Compound I-16, 4-(1-(2-fluorophenyl)-1H-pyrazol-4-yl)-5-((1-isopropylpiperidin-4-yl)methoxy)pyrim-idine], the half-inhibitory concentration (IC50) on MELK and on FLT3 was > 1000 nM each time.

As for `CC(Oc1cncnc1-c1cnn(-c2ccccc2F)c1)[C@H]1CC[C@@H](N)CC1` (stereo partly drawn) [Compound I-17, (1S,4s)-4-((R)-1-((4-(1-(2-fluorophenyl)-1H-pyrazol-4-yl)pyrimidin-5-yl)oxy)ethyl)cyclo-hexan-1-amine], the IC50 against MELK and against FLT3 was 200 to 1000 nM in each case.

As to `Cc1cccc(F)c1-n1cc(-c2ncncc2OC[C@H]2CCC[C@@H](N)C2)cn1` [Compound I-18, (1R,3S)-3-(((4-(1-(2-fluoro-6-methylphenyl)-1H-pyrazol-4-yl)pyrimidin-5-yl)oxy)methyl)cyclo-hexan-1-amine], the IC50 was > 1000 nM against MELK and 200 to 1000 nM at FLT3.

With `N[C@H]1CC[C@@H](CCOc2cncnc2-c2cnn(-c3ccccc3F)c2)CC1` [Compound I-19, (1s,4s)-4-(2-((4-(1-(2-fluorophenyl)-1H-pyrazol-4-yl)pyrimidin-5-yl)oxy)ethyl)cyclo-hexan-1-amine], the IC50 at MELK and against FLT3 was < 200 nM each time.

For `N[C@H]1CC[C@@H](COc2cncnc2-c2cnn(-c3cc(F)cc(F)c3)c2)CC1` [Compound I-20, (1s,4s)-4-(((4-(1-(3,5-difluorophenyl)-1H-pyrazol-4-yl)pyrimidin-5-yl)oxy)methyl)cyclo-hexan-1-amine], the figures for the IC50 on MELK and against FLT3 were > 1000 nM and 200 to 1000 nM, respectively.

Regarding `N[C@H]1CC[C@@H](COc2cncnc2-c2cnn(-c3ccc(O)c(F)c3)c2)CC1` [Compound I-21, 4-(4-(5-(((1s,4s)-4-aminocyclohexyl)meth-oxy)pyrimidin-4-yl)-1H-pyrazol-1-yl)-2-fluorophenol], the IC50 on MELK and against FLT3 was < 200 nM throughout.

Consider `COc1ccc(-n2cc(-c3ncncc3OC[C@H]3CC[C@@H](N)CC3)cn2)cc1F` [Compound I-22, (1s,4s)-4-(((4-(1-(3-fluoro-4-methoxyphenyl)-1H-pyrazol-4-yl)pyrimidin-5-yl)oxy)methyl)cyclo-hexan-1-amine], for which the IC50 on MELK and on FLT3 was < 200 nM throughout.

On to `Fc1ccccc1-n1cc(-c2ncncc2OCC2CCNCC2)cn1` [Compound I-23, 4-(1-(2-fluorophenyl)-1H-pyrazol-4-yl)-5-(piperidin-4-ylmethoxy)pyrim-idine], for which the IC50 at MELK and against FLT3 was < 200 nM throughout.

Consider `Fc1ccccc1-n1cc(-c2ncncc2NCC2CCNCC2)cn1` [Compound I-24, 4-(1-(2-fluorophenyl)-1H-pyrazol-4-yl)-N-(piperidin-4-ylmethyl)pyrimidin-5-amine], for which the half-inhibitory concentration (IC50) against MELK and at FLT3 was > 1000 nM each time.
